Data from US10676527B2, “Methods and compositions for modulation of blood-neural barrier” (Ludwig Institute for Cancer Research Ltd, priority 2006, dated 2020).
Structures can show the parent of a compound that is named as a salt.

Columns and labels:
PDGFR-α = PDGFR-α (Homo sapiens, UniProt P16234); conditions: known from the art; cited from earlier work
BBB = assay: Evans Blue extravasation (BBB opening) after intraventricular injection; format: in vivo; conditions: Example 1, FIG. 1; C57BL6 mice, 2 μl intraventricular, 3 μM, 1 hour after injection
Experimental: Wild type C57BL6 mice (10 Week old) were injected intraventricularly into the dorsal third ventricle with 2 μl of PBS, active PDGF-AA, PDGF-BB (both from Preprotech Inc.) and PDGF-CC (see below) (3 μM). Evans Blue was given intravenously immediately after the injection. One hour after the injection, the animals were perfused with PBS and the brain tissue was removed and processed for Evans Blue extravasation.
Wild type C57BL6 mice (10 Week old) were injected intraventricularly into the dorsal third ventricle with 2 μl of either PBS, wild type murine tPA (3 μM), active PDGF-CC (3 μM), or wild type murine tPA (3 μM) plus active PDGF-CC (3 μM). Evans Blue was given intravenously immediately after the injection. One hour after the injection, the animals were perfused with PBS and the brain tissue was removed and processed for Evans Blue extravasation.
Wt C57BL6 mice (10 Week old) were injected intraventricularly with 3 μl of either PBS, wild type murine tPA (3 μM), wild type murine tPA (3 μM) with rabbit anti-PDGF-CC (150 μg/ml). Evans Blue was given intravenously immediately after the injection. One hour after the injection, the animals were perfused with PBS and the brain tissue was removed and processed for Evans Blue extravasation.

PDGFR-α, sequence (P16234 24-1089, species assumed): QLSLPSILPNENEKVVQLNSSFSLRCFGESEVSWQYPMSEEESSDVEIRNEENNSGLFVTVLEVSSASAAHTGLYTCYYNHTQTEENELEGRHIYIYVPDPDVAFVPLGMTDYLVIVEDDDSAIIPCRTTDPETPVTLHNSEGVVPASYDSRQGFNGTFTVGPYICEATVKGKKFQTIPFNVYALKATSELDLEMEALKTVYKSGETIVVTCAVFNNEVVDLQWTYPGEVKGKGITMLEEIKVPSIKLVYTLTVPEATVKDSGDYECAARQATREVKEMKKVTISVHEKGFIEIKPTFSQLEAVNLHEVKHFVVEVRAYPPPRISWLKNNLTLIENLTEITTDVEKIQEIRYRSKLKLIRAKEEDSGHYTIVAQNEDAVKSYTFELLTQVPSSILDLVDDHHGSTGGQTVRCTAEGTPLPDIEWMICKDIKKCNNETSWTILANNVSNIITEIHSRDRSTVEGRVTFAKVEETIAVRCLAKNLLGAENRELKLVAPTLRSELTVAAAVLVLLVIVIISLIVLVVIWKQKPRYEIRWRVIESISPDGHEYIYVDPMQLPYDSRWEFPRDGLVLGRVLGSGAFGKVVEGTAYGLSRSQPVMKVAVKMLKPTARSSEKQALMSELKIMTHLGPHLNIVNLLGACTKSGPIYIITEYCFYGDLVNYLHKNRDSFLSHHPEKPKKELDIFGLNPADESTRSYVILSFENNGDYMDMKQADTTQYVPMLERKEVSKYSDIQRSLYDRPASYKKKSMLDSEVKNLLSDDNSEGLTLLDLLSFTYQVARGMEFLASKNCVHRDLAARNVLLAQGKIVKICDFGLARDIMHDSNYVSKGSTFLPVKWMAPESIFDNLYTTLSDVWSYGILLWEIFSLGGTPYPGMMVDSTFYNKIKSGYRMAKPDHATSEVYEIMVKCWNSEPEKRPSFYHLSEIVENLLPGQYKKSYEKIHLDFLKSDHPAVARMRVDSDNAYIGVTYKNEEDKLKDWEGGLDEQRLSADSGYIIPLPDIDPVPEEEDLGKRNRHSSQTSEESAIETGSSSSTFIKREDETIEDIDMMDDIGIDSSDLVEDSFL

Molecule | inhibition of PDGFR-α (PDGFR-α) | vascular permeability / opening of the BBB (Evans Blue extravasation) (BBB)
Cc1ccc(NC(=O)c2ccc(CN3CCN(C)CC3)cc2)cc1Nc1nccc(-c2cccnc2)n1 [Gleevec®, imatinib mesylate] | at least partially inhibit | 
PDGF-AA: active platelet-derived growth factor AA dimer (from Preprotech Inc.) |  | induce increased vascular permeability
